# pIC50: −log10 of the molar value.
# Assays:
# [1] = target: T1, Leukotriene A-4 hydrolase (Homo sapiens) (UniProt P09960); test: Inhibition of epoxide hydrolase activity of human recombinant leukotriene A4 hydrolase expressed in Escherichia coli assessed as LTB4 production at 100 uM by RP-HPLC
# T1 sequence (whole entry): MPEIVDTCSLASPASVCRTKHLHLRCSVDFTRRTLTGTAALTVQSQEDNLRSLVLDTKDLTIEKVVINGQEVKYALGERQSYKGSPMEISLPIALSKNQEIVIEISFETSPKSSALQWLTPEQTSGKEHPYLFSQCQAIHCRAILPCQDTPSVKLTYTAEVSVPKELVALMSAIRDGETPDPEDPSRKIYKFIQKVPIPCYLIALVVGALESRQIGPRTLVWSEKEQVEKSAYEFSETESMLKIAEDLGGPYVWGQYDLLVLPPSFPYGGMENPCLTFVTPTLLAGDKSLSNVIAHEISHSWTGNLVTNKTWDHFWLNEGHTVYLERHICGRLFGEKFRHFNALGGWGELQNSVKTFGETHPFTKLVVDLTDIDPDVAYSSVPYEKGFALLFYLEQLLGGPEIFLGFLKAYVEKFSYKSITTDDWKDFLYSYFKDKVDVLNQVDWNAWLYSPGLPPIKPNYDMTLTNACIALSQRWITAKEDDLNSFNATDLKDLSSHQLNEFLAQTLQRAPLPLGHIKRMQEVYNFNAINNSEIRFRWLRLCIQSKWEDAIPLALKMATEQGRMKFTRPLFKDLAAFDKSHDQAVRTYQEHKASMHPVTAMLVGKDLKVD
# [2] = target: T2, Polyunsaturated fatty acid 5-lipoxygenase (Homo sapiens, UniProt P09917); test: Inhibition of human 5-LOX in A23187-induced human whole blood assessed as reduction in LTB4 production pre-incubated for 20 mins before A23187 addition by enzyme immunoassay
# T2 sequence (P09917 whole entry): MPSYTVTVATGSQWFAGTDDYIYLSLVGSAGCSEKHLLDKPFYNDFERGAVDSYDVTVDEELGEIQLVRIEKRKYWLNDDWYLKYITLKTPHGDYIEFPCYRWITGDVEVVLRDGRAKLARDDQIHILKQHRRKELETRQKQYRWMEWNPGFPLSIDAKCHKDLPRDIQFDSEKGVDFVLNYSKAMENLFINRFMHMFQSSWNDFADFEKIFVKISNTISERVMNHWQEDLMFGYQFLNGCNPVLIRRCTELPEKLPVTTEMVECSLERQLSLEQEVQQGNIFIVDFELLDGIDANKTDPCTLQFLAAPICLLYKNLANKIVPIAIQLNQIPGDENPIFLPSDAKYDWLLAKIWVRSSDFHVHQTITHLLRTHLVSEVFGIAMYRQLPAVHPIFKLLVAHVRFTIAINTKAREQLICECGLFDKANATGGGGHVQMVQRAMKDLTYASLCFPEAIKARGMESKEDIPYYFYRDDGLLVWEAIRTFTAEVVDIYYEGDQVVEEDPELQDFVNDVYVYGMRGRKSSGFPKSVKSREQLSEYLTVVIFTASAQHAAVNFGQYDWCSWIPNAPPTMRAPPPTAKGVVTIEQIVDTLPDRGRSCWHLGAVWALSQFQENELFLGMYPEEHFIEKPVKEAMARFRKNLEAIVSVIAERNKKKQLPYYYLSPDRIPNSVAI
# [3] = target: T2, Polyunsaturated fatty acid 5-lipoxygenase; test: Inhibition of human recombinant 5-LOX expressed in Escherichia coli […] incubated 10 mins before substrate addition by fluorescence spectrophotometry based cell free system assay
# [4] = target: T3, Polyunsaturated fatty acid 5-lipoxygenase (Rattus norvegicus, UniProt P12527); test: Inhibition of 5-LOX in rat RBL1 cells assessed as reduction in LTB4 production; assay type: cell-based, RBL-1
# T3 sequence (P12527 whole entry): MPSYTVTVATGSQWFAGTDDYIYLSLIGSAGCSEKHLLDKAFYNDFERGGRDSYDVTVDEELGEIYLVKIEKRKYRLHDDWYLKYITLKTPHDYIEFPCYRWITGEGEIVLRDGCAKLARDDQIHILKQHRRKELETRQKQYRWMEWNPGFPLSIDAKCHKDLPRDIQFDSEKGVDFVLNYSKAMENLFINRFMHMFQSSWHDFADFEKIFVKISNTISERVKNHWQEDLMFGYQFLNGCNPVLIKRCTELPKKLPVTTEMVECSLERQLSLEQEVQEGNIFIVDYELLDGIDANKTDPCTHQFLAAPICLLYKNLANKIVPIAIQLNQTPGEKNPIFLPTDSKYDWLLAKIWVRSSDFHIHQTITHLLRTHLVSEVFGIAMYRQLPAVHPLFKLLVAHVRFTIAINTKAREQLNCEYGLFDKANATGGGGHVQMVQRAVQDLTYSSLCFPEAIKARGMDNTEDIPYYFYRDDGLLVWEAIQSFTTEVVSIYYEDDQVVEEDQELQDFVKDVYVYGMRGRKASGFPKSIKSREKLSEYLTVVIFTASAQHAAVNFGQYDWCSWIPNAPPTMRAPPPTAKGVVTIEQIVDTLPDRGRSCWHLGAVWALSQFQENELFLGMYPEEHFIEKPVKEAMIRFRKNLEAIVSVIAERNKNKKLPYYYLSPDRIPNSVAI
# Prostaglandin E synthase [5] = target: T4, Prostaglandin E synthase (Homo sapiens, UniProt O14684); test: Inhibition of mPGES1 in LPS-stimulated human whole blood assessed as reduction in PGE2 production incubated for 24 hrs at 37 degC by enzyme immunoassay
# T4 sequence (O14684 whole entry): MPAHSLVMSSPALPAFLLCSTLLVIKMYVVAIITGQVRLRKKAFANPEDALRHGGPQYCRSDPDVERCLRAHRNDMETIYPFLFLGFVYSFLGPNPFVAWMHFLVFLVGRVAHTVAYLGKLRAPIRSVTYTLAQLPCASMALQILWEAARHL
# [6] = target: T5, Prostaglandin G/H synthase 2 (Homo sapiens) (UniProt P35354); test: Inhibition of purified COX2 assessed as formation of oxidized TMPD during reduction of PGG2 to PGH2 preincubated for 15 mins by chromogenic assay
# T5 sequence (whole entry): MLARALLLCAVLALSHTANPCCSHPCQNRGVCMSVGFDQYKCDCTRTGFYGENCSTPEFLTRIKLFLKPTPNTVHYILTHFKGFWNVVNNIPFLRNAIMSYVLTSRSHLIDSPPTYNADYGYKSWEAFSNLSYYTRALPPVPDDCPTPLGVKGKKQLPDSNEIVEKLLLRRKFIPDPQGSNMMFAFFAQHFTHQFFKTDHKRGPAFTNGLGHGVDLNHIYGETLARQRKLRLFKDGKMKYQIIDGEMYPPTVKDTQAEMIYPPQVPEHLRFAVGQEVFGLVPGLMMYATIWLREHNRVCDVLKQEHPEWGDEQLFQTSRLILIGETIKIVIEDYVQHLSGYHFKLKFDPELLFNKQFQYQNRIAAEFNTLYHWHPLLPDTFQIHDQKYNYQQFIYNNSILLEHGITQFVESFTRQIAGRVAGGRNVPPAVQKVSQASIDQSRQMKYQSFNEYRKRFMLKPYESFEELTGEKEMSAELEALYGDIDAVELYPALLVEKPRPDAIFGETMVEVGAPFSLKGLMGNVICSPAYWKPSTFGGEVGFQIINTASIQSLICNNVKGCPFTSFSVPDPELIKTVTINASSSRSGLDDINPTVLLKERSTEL
# [7] = target: Prostaglandin G/H synthase 1 (Homo sapiens) (UniProt P23219); test: Inhibition of purified COX1 assessed as formation of oxidized TMPD during reduction of PGG2 to PGH2 preincubated for 15 mins by chromogenic assay
# Prostaglandin E synthase [8] = target: T4, Prostaglandin E synthase; test: Inhibition of mPGES1 expressed in Escherichia coli Rosetta-DE3 assessed as reduction in PGE2 production by enzyme immunoassay based cell-free system assay
# Prostaglandin G/H synthase 1 (Homo sapiens), sequence (P23219 whole entry): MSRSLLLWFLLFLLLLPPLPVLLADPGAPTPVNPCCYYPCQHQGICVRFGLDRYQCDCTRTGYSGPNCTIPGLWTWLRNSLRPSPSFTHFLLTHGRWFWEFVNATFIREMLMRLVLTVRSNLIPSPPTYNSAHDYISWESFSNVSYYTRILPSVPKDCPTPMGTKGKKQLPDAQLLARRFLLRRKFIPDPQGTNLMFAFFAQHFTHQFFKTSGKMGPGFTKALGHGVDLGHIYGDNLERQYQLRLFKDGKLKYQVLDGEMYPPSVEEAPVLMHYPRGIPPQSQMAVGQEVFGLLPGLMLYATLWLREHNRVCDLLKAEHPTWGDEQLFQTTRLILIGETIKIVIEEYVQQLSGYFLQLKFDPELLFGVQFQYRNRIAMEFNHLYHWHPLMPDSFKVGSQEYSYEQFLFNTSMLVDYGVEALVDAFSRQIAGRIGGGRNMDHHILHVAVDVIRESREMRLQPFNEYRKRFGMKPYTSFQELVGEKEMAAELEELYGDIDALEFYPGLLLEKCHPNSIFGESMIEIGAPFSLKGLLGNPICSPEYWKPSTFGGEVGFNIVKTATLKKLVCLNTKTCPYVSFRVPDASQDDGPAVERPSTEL
inhibition [1],pIC50 [2],pIC50 [3],pIC50 [4],pIC50 (Prostaglandin E synthase [5]),inhibition [6],inhibition [7],pIC50 (Prostaglandin E synthase [8]),Compound
< 50%,4.32,5.83,–,–,–,–,–,O=C(COC(=O)c1ccc(C(=O)c2ccc([N+](=O)[O-])cc2)cc1)c1ccccc1
< 50%,< 4.00,4.28,–,–,–,–,–,N#C/C(=C(/O)c1ccc(Cl)c([N+](=O)[O-])c1)c1nc2ccccc2s1
< 50%,< 4.00,4.85,–,–,–,–,–,Cc1cccc(C2=N/C(=C\c3ccc(-c4cccc(Cl)c4)o3)C(=O)O2)c1
< 50%,< 4.00,4.19,–,–,–,–,–,Cc1nn(Cc2ccc(F)cc2)c(C)c1NC(=O)C1CC(c2cccc(Br)c2)=NO1 (stereo not given)
< 50%,4.40,6.07,–,–,–,–,–,CCOc1cc(/C=N\Nc2nc3ccccc3s2)cc([N+](=O)[O-])c1O
< 50%,< 4.00,4.82,–,–,–,–,–,O=C(CSc1nnnn1-c1ccc(Cl)c(C(=O)O)c1)Nc1ccc(F)cc1
< 50%,< 4.00,4.17,–,–,–,–,–,COc1cc(Cl)cc(/C=C2/SC(=O)N(Cc3ccc(F)cc3)C2=O)c1O
< 50%,4.42,5.28,–,–,–,–,–,O=C1c2ccc([N+](=O)[O-])cc2C(=O)N1CNc1ccc([N+](=O)[O-])cc1
< 50%,< 4.00,4.35,–,–,–,–,–,COC(=O)c1ccc(NC(=S)NC(=O)c2cc(-c3ccccc3)nc3ccccc23)cc1
< 50%,4.44,6.21,–,–,–,–,–,O=C(O/N=C/c1ccc(Br)cc1)c1cc([N+](=O)[O-])cc([N+](=O)[O-])c1
< 50%,4.12,5.85,–,–,–,–,–,Cc1ccc(Sc2nc([N+](=O)[O-])nn2CC(=O)c2ccccc2)cc1
< 50%,< 4.00,4.54,–,–,–,–,–,CCOc1ccc(S(=O)(=O)N(CC(=O)N2CCc3ccccc3C2)c2ccccc2)cc1
–,–,–,5.44,5.41,–,–,–,CC1(C)Cc2c(-c3ccccc3)c(-c3ccc(Cl)cc3)c(CC(=O)O)n2C1 [LICOFELONE]
< 50%,< 4.00,4.36,–,–,–,–,–,Cc1cc(Cl)ccc1NC(=O)Cn1nnc2sc3c(c2c1=O)CCCC3
< 50%,< 4.00,4.09,–,–,–,–,–,CC(C)(C)OC(=O)NNS(=O)(=O)c1cccc([N+](=O)[O-])c1
< 50%,< 4.00,4.17,–,–,–,–,–,O=C(NC1c2ccccc2Oc2ccccc21)c1ccc(Cl)c([N+](=O)[O-])c1

inhibition [1],pIC50 [2],pIC50 [3],pIC50 [4],pIC50 (Prostaglandin E synthase [5]),inhibition [6],inhibition [7],pIC50 (Prostaglandin E synthase [8]),Compound
< 50%,< 4.00,5.34,–,–,–,–,–,Cc1ccc2cccc(OC(=O)c3cccc([N+](=O)[O-])c3)c2n1
< 50%,< 4.00,4.47,–,–,–,–,–,O=c1/c(=C/c2cc(I)c(O)c([N+](=O)[O-])c2)sc2nc3ccccc3n12
< 50%,–,–,–,–,< 50%,< 50%,–,Cc1cccc(NC2=NS(=O)(=O)c3cc([N+](=O)[O-])ccc32)c1
< 50%,< 4.00,4.15,–,–,–,–,–,C/C(NCc1ccc(Cl)c(Cl)c1)=C1\C(=O)N(c2nc3ccccc3s2)N=C1C(F)(F)F
< 50%,< 4.00,4.01,–,–,–,–,–,c1ccc2c(c1)OCC(c1nn3c(Cn4nnc5ccccc54)nnc3s1)O2 (stereo not given)
< 50%,< 4.00,5.27,–,–,–,–,–,Cn1ncc(Cl)c1C(=O)N/N=C/c1ccccc1OC(=O)c1ccc([N+](=O)[O-])cc1
< 50%,4.62,6.10,–,–,–,–,–,O=[N+]([O-])c1ccc(CSc2cc3ccccc3[nH]2)c([N+](=O)[O-])c1
–,5.01,5.73,–,4.81,–,–,5.17,Cc1cccc(N=C2NS(=O)(=O)c3cc([N+](=O)[O-])ccc32)c1
< 50%,< 4.00,4.09,–,–,–,–,–,O=C(NCCNC(=O)c1ccc([N+](=O)[O-])o1)c1ccc2ccccc2n1
< 50%,< 4.00,4.77,–,–,–,–,–,COc1ccc(-c2nnc3sc(/C=C/c4ccccc4OC)nn23)cc1
< 50%,< 4.00,4.15,–,–,–,–,–,c1ccc(SCc2nnc3sc(-c4ccc5c(c4)OCCO5)nn23)cc1
< 50%,< 4.00,4.70,–,–,–,–,–,COc1ccc(/C=C2\N=C(c3ccc(Cl)c([N+](=O)[O-])c3)OC2=O)c(OC)c1OC
< 50%,< 4.00,4.10,–,–,–,–,–,O=C1OC(c2ccc3ccccc3c2)=N/C1=C\c1ccc(Cl)cc1
< 50%,5.07,5.98,–,5.12,< 50%,< 50%,5.44,O=C(Oc1cccc2ccccc12)c1cc([N+](=O)[O-])cc([N+](=O)[O-])c1
< 50%,< 4.00,4.43,–,–,–,–,–,Clc1ccc(-c2nn3c(Cc4ccccc4)nnc3s2)cc1Cl
< 50%,5.09,5.16,–,–,–,–,–,O=[N+]([O-])c1ccc(Cl)c(S(=O)(=O)n2cnc3ccccc32)c1
